This note sets out measurements from patent US11306081B2, “Phenylacetamides as inhibitors of rock” (BRISTOL-MYERS SQUIBB COMPANY, priority 2017, dated 2022).

The test deals with ROCK2 (Homo sapiens (Human), UniProt O75116). As to the kind of experiment: ROCK assay (LABCHIP 3000 peptide phosphorylation assay). As to conditions: 5 μM ATP, 1.5 μM peptide substrate, dose-response. Format: biochemical. The gist of the method: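 Rho kinase variants in 20 mM HEPES pH 7.5, 20 mM MgCl2, 0.015% Brij-35, 4 mM DTT, 5 μM ATP, 1.5 μM FITC-AHA-AKRRRLSSLRA-OH peptide; DMSO <2%. EDTA-stopped; phosphorylated/non-phosphorylated peptide separated by microfluidic LabChip readout. Dose-response inhibition curve-fitted to give IC50.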
ROCK2, sequence (O75116 whole entry, species assumed): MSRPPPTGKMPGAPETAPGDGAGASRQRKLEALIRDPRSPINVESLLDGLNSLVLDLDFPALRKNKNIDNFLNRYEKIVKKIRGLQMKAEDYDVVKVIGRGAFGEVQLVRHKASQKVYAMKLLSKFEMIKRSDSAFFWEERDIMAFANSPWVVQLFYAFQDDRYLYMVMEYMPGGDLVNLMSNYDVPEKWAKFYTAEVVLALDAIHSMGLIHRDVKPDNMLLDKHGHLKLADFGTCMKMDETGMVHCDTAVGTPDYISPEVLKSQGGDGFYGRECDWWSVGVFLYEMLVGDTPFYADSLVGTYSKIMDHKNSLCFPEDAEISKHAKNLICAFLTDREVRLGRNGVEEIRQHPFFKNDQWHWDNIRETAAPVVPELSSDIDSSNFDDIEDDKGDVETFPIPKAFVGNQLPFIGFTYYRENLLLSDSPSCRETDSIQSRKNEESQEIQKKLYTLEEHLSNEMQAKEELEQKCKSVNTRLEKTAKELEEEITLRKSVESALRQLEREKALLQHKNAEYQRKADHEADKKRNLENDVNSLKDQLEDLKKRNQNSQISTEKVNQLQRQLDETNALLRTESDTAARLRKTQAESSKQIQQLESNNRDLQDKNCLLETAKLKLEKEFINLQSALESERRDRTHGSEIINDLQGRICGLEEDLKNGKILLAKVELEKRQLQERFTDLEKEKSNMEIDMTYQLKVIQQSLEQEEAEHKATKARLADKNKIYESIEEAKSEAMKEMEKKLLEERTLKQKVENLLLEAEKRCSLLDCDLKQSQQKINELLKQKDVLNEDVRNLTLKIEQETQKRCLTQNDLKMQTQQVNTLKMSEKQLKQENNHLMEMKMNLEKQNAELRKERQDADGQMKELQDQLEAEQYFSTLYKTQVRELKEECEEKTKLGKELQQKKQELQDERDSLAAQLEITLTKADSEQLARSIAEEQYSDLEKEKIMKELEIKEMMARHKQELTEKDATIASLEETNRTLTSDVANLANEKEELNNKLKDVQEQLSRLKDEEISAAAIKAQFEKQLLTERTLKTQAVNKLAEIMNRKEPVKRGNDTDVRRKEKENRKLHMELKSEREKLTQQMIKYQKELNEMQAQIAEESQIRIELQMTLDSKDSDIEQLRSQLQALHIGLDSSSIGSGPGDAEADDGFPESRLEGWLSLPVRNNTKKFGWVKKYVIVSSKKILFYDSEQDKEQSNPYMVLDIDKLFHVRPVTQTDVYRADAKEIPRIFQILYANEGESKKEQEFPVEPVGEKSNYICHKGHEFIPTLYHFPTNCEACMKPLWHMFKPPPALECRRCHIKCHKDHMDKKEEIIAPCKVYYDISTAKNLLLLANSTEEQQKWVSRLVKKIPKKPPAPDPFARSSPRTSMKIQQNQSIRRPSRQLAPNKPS

Broadly, the IC50 is the midpoint of a concentration-inhibition curve. As to `Cn1cc(-c2ccc3c(c2)nc(NC(=O)Cc2ccc(Oc4ncccc4C(N)=O)c(F)c2)n3CC(F)(F)F)cn1` [Example 038, 2-(2-fluoro-4-(2-((5-(1-methyl-1H-pyrazol-4-yl)-1-(2,2,2-trifluoroethyl)-1H-benzo[d]imidazol-2-yl)amino)-2-oxoethyl)phenoxy)nico-tinamide], the IC50 stood at 30 nM.

Take `NC(=O)c1cccnc1Oc1ccc(CC(=O)Nc2nc(-c3cc[nH]c(=O)c3)cs2)cc1F` [Example 018, 2-(2-fluoro-4-(2-oxo-2-((4-(2-oxo-1,2-dihydropyridin-4-yl)thiazol-2-yl)amino)ethyl)phenoxy)nicotinamide]: the IC50 came out at 245 nM.

`Cc1sc(NC(=O)Cc2ccc(Oc3ncccc3C(N)=O)c(F)c2)nc1-c1cncnc1` [Example 041, 2-(2-fluoro-4-(2-((5-methyl-4-(pyrimidin-5-yl)thiazol-2-yl)amino)-2-oxoethyl)phenoxy)nico-tinamide] returned a 50% inhibitory concentration (IC50) of 175 nM.

For `COc1cccn2nc(NC(=O)Cc3ccc(Oc4ncccc4C(N)=O)c(Cl)c3)nc12` [Example 082, 2-(2-chloro-4-(2-((8-methoxy-[1,2,4]triazolo[1,5-a]pyridin-2-yl)amino)-2-oxoethyl)phenoxy) nicotinamide], the IC50 was 6 nM.

The molecule `Cn1nc(C(F)(F)F)cc1-c1ccc2sc(NC(=O)Cc3ccc(Oc4ncccc4C(N)=O)c(F)c3)nc2c1` [Example 006, 2-(2-fluoro-4-(2-((5-(1-methyl-3-(trifluoromethyl)-1H-pyrazol-5-yl)benzo[d]thiazol-2-yl)amino)-2-oxoethyl)phenoxy) nicotinamide] came in with a half-inhibitory concentration (IC50) of 18 nM.

For the molecule `NC(=O)c1cccnc1Oc1ccc(CC(=O)Nc2nc3cc(F)ccn3n2)cc1F` [Example 142, 2-(2-fluoro-4-(2-((7-fluoro-[1,2,4]triazolo[1,5-a]pyridin-2-yl)amino)-2-oxoethyl)phenoxy)nicotinamide], half-maximal inhibition (IC50) required 72 nM.

`Cc1sc(NC(=O)Cc2ccc(Oc3ncccc3C(N)=O)c(Cl)c2)nc1-c1cccnc1F` [Example 102, 2-(2-chloro-4-(2-((4-(2-fluoropyridin-3-yl)-5-methylthiazol-2-yl)amino)-2-oxoethyl)phenoxy) nicotinamide] gave an IC50 of 12 nM.

In the case of `Cc1sc(NC(=O)Cc2ccc(Oc3ncccc3C(N)=O)c(F)c2)nc1-c1ccc(F)nc1` [Example 085, 2-(2-fluoro-4-(2-((4-(6-fluoropyridin-3-yl)-5-methylthiazol-2-yl)amino)-2-oxoethyl)phenoxy) nicotinamide], the half-maximal inhibitory concentration (IC50) was determined as 176 nM.

For `NC(=O)c1cccnc1Oc1ccc(CC(=O)Nc2nc3ccccc3n2Cc2ccccc2)cc1Cl` [Example 079, 2-(4-(2-((1-benzyl-1H-benzo[d]imidazol-2-yl)amino)-2-oxoethyl)-2-chlorophenoxy)nico-tinamide], the midpoint of inhibition, the IC50, lay at 181 nM.

The molecule `NC(=O)c1cccnc1Oc1ccc(CC(=O)Nc2nnc(C(F)(F)F)s2)cc1F` [Example 091, 2-(2-fluoro-4-(2-oxo-2-((5-(trifluoromethyl)-1,3,4-thiadiazol-2-yl)amino)ethyl)phe-noxy)nicotinamide] gave an IC50 of 874 nM.

For the molecule `NC(=O)c1cccnc1Oc1ccc(CC(=O)Nc2nc3ccc(F)cc3n2CC2CC2)cc1F` [Example 168, 2-(4-(2-((1-(cyclopropyl-methyl)-6-fluoro-1H-benzo[d]-imidazol-2-yl)-amino)-2-oxo-ethyl)-2-fluoro-phenoxy)nicotin-amide], 18 nM corresponded to half-maximal inhibition (IC50).

Turning to `CP(C)(=O)c1ccc2sc(NC(=O)Cc3ccc(Oc4ncccc4C(N)=O)c(F)c3)nc2c1` [Example 146], the IC50 was 132 nM.

The molecule `Cc1ccc(-c2nc(NC(=O)Cc3ccc(Oc4ncccc4C(N)=O)cc3)sc2C)cc1Cl` [Example 050, 2-(4-(2-((4-(3-chloro-4-methylphenyl)-5-methylthiazol-2-yl)amino)-2-oxoethyl)phenoxy) nicotinamide] showed a 50% inhibitory concentration (IC50) of 175 nM.

Consider `NC(=O)c1cccnc1Oc1ccc(CC(=O)Nc2nc3cc(OCc4ccccc4)ccn3n2)cc1F` [Example 143, 2-(4-(2-((7-(benzyloxy)-[1,2,4]triazolo[1,5-a]pyridin-2-yl)amino)-2-oxoethyl)-2-fluorophenoxy)nicotinamide], for which the midpoint of inhibition, the IC50, lay at 6 nM.

For the molecule `Cc1nc2sccn2c1-c1csc(NC(=O)Cc2ccc(Oc3ncccc3C(N)=O)c(Cl)c2)n1` [Example 081, 2-(2-chloro-4-(2-((4-(6-methylimidazo[2,1-b]thiazol-5-yl)thiazol-2-yl)amino)-2-oxoethyl)phenoxy) nicotinamide], half-maximal inhibition (IC50) required 59 nM.

In the case of `COC(=O)c1ccc2c(c1)nc(NC(=O)Cc1ccc(Oc3ncccc3C(N)=O)cc1)n2C` [Example 074, methyl 2-(2-(4-((3-carbamoylpyridin-2-yl)oxy)phenyl)acet-amido)-1-methyl-1H-benzo[d]imidazole-5-carboxylate], the IC50 was 1100 nM.

With `COC(=O)c1ccc2sc(NC(=O)Cc3ccc(Oc4ncccc4C(N)=O)cc3)nc2c1` [Example 065, methyl 2-(2-(4-((3-carbamoylpyridin-2-yl)oxy)phenyl)acet-amido)benzo[d]thi-azole-5-carboxylate], the IC50 is 109 nM.

Regarding `Cc1sc(NC(=O)Cc2ccc(Oc3ncccc3C(N)=O)c(F)c2)nc1C1CC1` [Example 046, 2-(4-(2-((4-cyclopropyl-5-methylthiazol-2-yl)amino)-2-oxoethyl)-2-fluorophenoxy)nicotin-amide], the half-maximal inhibitory concentration (IC50) was determined as 22 nM.

For `CN1CCc2sc(NC(=O)Cc3ccc(Oc4ncccc4C(N)=O)c(F)c3)nc2C1` [Example 084, 2-(2-fluoro-4-(2-((5-methyl-4,5,6,7-tetrahydrothiazolo [4,5-c]pyridin-2-yl)amino)-2-oxoethyl)phenoxy) nicotinamide], the 50% inhibitory concentration (IC50) was found to be 947 nM.

Consider `NC(=O)c1cccnc1Oc1ccc(CC(=O)Nc2nc3cc(F)ccc3n2CC2CC2)cc1Cl` [Example 174, 2-(2-chloro-4-(2-((1-(cyclo-propylmethyl)-5-fluoro-1H-benzo[d]-imidazol-2-yl)-amino)-2-oxo-ethyl)phenoxy)-nicotinamide], for which the concentration for half-maximal inhibition (IC50) stood at 10 nM.

As to `NC(=O)c1cccnc1Oc1ccc(CC(=O)Nc2nc3c(F)cccn3n2)cc1F` [Example 127, 2-(2-fluoro-4-(2-((8-fluoro-[1,2,4]-triazolo[1,5-a]-pyridin-2-yl)amino)-2-oxoethyl)phenoxy)-nicotinamide], half-maximal inhibition (IC50) required 127 nM.

In the case of `NC(=O)c1cccnc1Oc1ccc(CC(=O)Nc2nnc(C3CC3)s2)cc1F` [Example 092, 2-(4-(2-((5-cyclopropyl-1,3,4-thiadiazol-2-yl)amino)-2-oxoethyl)-2-fluorophenoxy)nico-tinamide], half-maximal inhibition (IC50) required 361 nM.

In turn, `NC(=O)c1cccnc1Oc1ccc(CC(=O)Nc2nc3ccccc3n2CC2CC2)cc1Cl` [Example 007, 2-(2-chloro-4-(2-((1-(cyclopropylmethyl)-1H-benzo[d]imidazol-2-yl)amino)-2-oxoethyl)phenoxy)nicotinamide] returned an IC50 of 14 nM.

With `NC(=O)c1cccnc1Oc1ccc(CC(=O)Nc2nc3ccc(F)cn3n2)cc1F` [Example 128, 2-(2-fluoro-4-(2-((6-fluoro-[1,2,4]-triazolo[1,5-a]-pyridin-2-yl)amino)-2-oxoethyl)phenoxy)-nicotinamide], the IC50 is 301 nM.

Regarding `CC(C)n1c(NC(=O)Cc2ccc(Oc3ncccc3C(N)=O)c(F)c2)nc2ccccc21` [Example 153, 2-(2-fluoro-4-(2-((1-isopropyl-1H-benzo[d]imidazol-2-yl)amino)-2-oxoethyl)-phenoxy)nicotinamide], the IC50 was determined as 218 nM.

In turn, `COC(=O)Nc1cc(-c2nc(NC(=O)Cc3ccc(Oc4ncccc4C(N)=O)c(F)c3)sc2C)ccn1` [Example 019, methyl (4-(2-(2-(4-((3-carbamoylpyridin-2-yl)oxy)-3-fluorophenyl)acetamido)-5-methylthiazol-4-yl)pyridin-2-yl)carbamate] gave a 50% inhibitory concentration (IC50) of 49 nM.

The molecule `COc1ccc2c(c1)nc(NC(=O)Cc1ccc(Oc3ncccc3C(N)=O)c(F)c1)n2CC(F)F` [Example 120, 2-(4-(2-((1-(2,2-difluoroethyl)-5-methoxy-1H-benzo[d]imidazol-2-yl)amino)-2-oxoethyl)-2-fluorophenoxy)nicotinamide] returned a 50% inhibitory concentration (IC50) of 23 nM.

Molecule `NC(=O)c1cccnc1Oc1ccc(CC(=O)Nc2nc3ccc(C(F)(F)F)cc3n2CC2CC2)cc1Cl` [Example 176, 2-(2-chloro-4-(2-((1-(cyclo-propylmethyl)-6-(trifluoro-methyl)-1H-benzo[d]-imidazol-2-yl)-amino)-2-oxo-ethyl)phenoxy)-nicotinamide] registered an IC50 of 16 nM.

Consider `NC(=O)c1cccnc1Oc1ccc(CC(=O)Nc2nc3ccccc3n2CC2CCOCC2)cc1F` [Example 159, 2-(2-fluoro-4-(2-oxo-2-((1-((tetra-hydro-2H-pyran-4-yl)methyl)-1H-benzo[d]imidazol-2-yl)amino)ethyl)-phenoxy)nicotin-amide], for which the midpoint of inhibition, the IC50, lay at 2180 nM.

In turn, `CC(C)(O)COc1ccn2nc(NC(=O)Cc3ccc(Oc4ncccc4C(N)=O)c(F)c3)nc2c1` [Example 110, 2-(2-fluoro-4-(2-((7-(2-hydroxy-2-methylpropoxy)-[1,2,4]triazolo[1,5-a]pyridin-2-yl)amino)-2-oxoethyl)phenoxy)nicotinamide] registered an IC50 of 36 nM.

Regarding `CC(C)(O)COc1ccc2c(c1)CCc1sc(NC(=O)Cc3ccc(Oc4ncccc4C(N)=O)cc3)nc1-2` [Example 108, 2-(4-(2-((7-(2-hydroxy-2-methylpropoxy)-4,5-dihydronaphtho[1,2-d]thiazol-2-yl)amino)-2-oxoethyl)phenoxy)nicotinamide], the IC50 was 40 nM.

On to `Cc1sc(NC(=O)Cc2ccc(Oc3ncccc3C(N)=O)cc2)nc1-c1ccc(F)cc1` [Example 078, 2-(4-(2-((4-(4-fluorophenyl)-5-methylthiazol-2-yl)amino)-2-oxoethyl)phenoxy) nicotinamide], for which inhibition was half-maximal at 96 nM (IC50).

As to `NC(=O)c1cccnc1Oc1ccc(CC(=O)Nc2nc(-c3cccc(OC(F)(F)F)c3)cs2)cc1` [Example 062], the IC50 was 863 nM.
